Type in all cases: cell-based, human
For test [1], the system named is HTT mRNA. In words: Splicing RT-qPCR gene panel, HTT canonical junction (CJ) mRNA. To be noted: Tables 4A/4B, read-out: HTT (IC50, decrease in CJ mRNA, gene panel). Put shortly:
(§1)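 A673 or K562 cells treated 24 h at 37° C. with an 11-point 3-fold dilution series (top 10 uM, ≤0.25% DMSO). Lysates analysed by one-step RT-qPCR for canonical exon-exon junction transcripts, normalized to GAPDH, GUSB or PPIA and DMSO control (2^(−ΔΔCt)), then converted to percentage response.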

Another test deals with SMN2 mRNA. In words: Splicing RT-qPCR gene panel, SMN2 canonical junction (CJ) mRNA. To be noted: Homo sapiens, Tables 4A/4B, read-out: SMN2 (IC50, decrease in CJ mRNA, gene panel). An outline of the steps:
as §1
In general terms: In qPCR the cycle at which signal appears reflects the starting amount.

In test [2] the test system is HTT mRNA. The experiment in a line: Splicing RT-qPCR assay, HTT canonical (CJ) and alternative (AJ) junction mRNA. To be noted: A673 or K562 cells, 24 hours compound treatment; for IC50: read-out: HTT CJ (IC50, decrease in canonical junction mRNA); for AC50: read-out: HTT AJ (AC50, increase in alternative junction mRNA). An outline of the steps: (§2)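 Compound-induced exon inclusion is tracked as an increase in AJ transcript alongside the CJ transcript. Cells (A673 normalized to PPIA; K562 to GAPDH or GUSB) are dosed 24 h with a serial dilution topping at 10 uM, ≤0.25% DMSO, then lysed and analysed by RT-qPCR in at least duplicate.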

For a further test, the system named is Target C mRNA. The experiment in a line: Splicing RT-qPCR gene panel, Target C canonical junction (CJ) mRNA. The note with it: Tables 4A/4B, read-out: Target C (IC50, decrease in CJ mRNA, gene panel). An outline of the steps: as §1
In a further test the test system is MYB mRNA. In words: Splicing RT-qPCR assay, MYB canonical (CJ) and alternative (AJ) junction mRNA. To be noted: for AC50: read-out: MYB AJ (AC50, increase in alternative junction mRNA). Put shortly: as §2
Where [3] appears, read: Homo sapiens, 24 h, A673 or K562 cells, 24 hours compound treatment, RT-qPCR.
[4] abbreviates: Homo sapiens, 24 h, A673 or K562 cells, 24 hours compound treatment, RT-qPCR, read-out: MYB CJ (IC50, decrease in canonical junction mRNA).
Setting [5] is: Homo sapiens, Tables 4A/4B, canonical junction qPCR panel, read-out: MYB (IC50, decrease in CJ mRNA, gene panel).

Where two headings read alike, the source gives them in different places.

One may read the IC50 as the concentration at which inhibition is half-maximal. For orientation: AC50 means the concentration giving half of the maximal activity seen. Consider `CCOc1nc(NC(=O)c2ccc(N3CC[C@H](NC)C3)c3cn(C)nc23)cn2cc(C)nc12` [Compound 434], for which the IC50 was > 10000 nM with HTT mRNA [1] (Homo sapiens); < 100 nM in the test with SMN2 mRNA; 1000 to 10000 nM in the test on HTT mRNA [2] (Homo sapiens, 24 h); > 10000 nM in the test on Target C mRNA (Homo sapiens); 100 to 1000 nM in the test on MYB mRNA (setting [4]); < 100 nM with MYB mRNA (setting [5]). Besides, the AC50 in the test on HTT mRNA [2] (Homo sapiens) and with MYB mRNA (setting [3]) was 1000 to 10000 nM throughout.

With `Cc1cn2cc(NC(=O)c3ccc(N4CCNCC4)c4nnn(C)c34)cc(F)c2n1` [Compound 435, N-{8-fluoro-2-methylimidazo[1,2-a]pyridin-6-yl}-3-methyl-7-(piperazin-1-yl)-1,2,3-benzotriazole-4-carboxamide], the IC50 was 1000 to 10000 nM in the test on HTT mRNA [1] (Homo sapiens); < 100 nM in the test on SMN2 mRNA; > 10000 nM in the test on HTT mRNA [2] (Homo sapiens, 24 h); 1000 to 10000 nM with Target C mRNA (Homo sapiens); > 10000 nM in the test on MYB mRNA (setting [4]); 100 to 1000 nM with MYB mRNA (setting [5]). Also, the half-maximal activity concentration (AC50) with HTT mRNA [2] (Homo sapiens) and in the test with MYB mRNA (setting [3]) was > 10000 nM each time.

With `Cc1cn2cc(NC(=O)c3ccc(N4CCNCC4)c4c3nnn4C)cc(F)c2n1` [Compound 436, N-{8-fluoro-2-methylimidazo[1,2-a]pyridin-6-yl}-1-methyl-7-(piperazin-1-yl)-1,2,3-benzotriazole-4-carboxamide], the IC50 in the test with HTT mRNA [1] (Homo sapiens) was > 10000 nM; in the test with SMN2 mRNA, > 10000 nM; in the test on HTT mRNA [2] (Homo sapiens, 24 h) it was > 10000 nM; in the test with Target C mRNA (Homo sapiens), > 10000 nM; in the test on MYB mRNA (setting [4]), 100 to 1000 nM; in the test with MYB mRNA (setting [5]) it was > 10000 nM. The AC50 in the test with HTT mRNA [2] (Homo sapiens) is > 10000 nM; with MYB mRNA (setting [3]) it was 100 to 1000 nM.

Turning to `CCn1cc2c(N3CC[C@H](NC)C3)ccc(C(=O)Nc3cc(F)c4nc(C)cn4c3)c2n1` [Compound 437, (S)-2-ethyl-N-(8-fluoro-2-methylimidazo[1,2-a]pyridin-6-yl)-4-(3-(methylamino)pyrrolidin-1-yl)-2H-indazole-7-carboxamide], the IC50 in the test on HTT mRNA [1] (Homo sapiens) was > 10000 nM; in the test on SMN2 mRNA it was < 100 nM; with HTT mRNA [2] (Homo sapiens, 24 h) it was 1000 to 10000 nM; in the test with Target C mRNA (Homo sapiens), > 10000 nM; in the test on MYB mRNA (setting [4]) it was < 100 nM; with MYB mRNA (setting [5]), 100 to 1000 nM. Besides, the figures for the AC50 with HTT mRNA [2] (Homo sapiens) and in the test on MYB mRNA (setting [3]) were 1000 to 10000 nM and < 100 nM, respectively.

As for `CN[C@@H]1CCN(c2ccc(C(=O)Nc3cn4cc(C)nc4c(OC)n3)c3nn(C)cc23)C1` [Compound 441], the IC50 is 1000 to 10000 nM in the test on HTT mRNA [1] (Homo sapiens); < 100 nM in the test on SMN2 mRNA; 1000 to 10000 nM in the test on HTT mRNA [2] (Homo sapiens, 24 h); > 10000 nM in the test with Target C mRNA (Homo sapiens); < 100 nM in the test on MYB mRNA (setting [4]); < 100 nM in the test with MYB mRNA (setting [5]). In addition, the AC50 was 1000 to 10000 nM with HTT mRNA [2] (Homo sapiens) and < 100 nM in the test on MYB mRNA (setting [3]).

For the compound `CN[C@H]1CCN(c2ccc(C(=O)Nc3cn4cc(C)nc4c(OC)n3)c3nn(C)cc23)C1` [Compound 442], the IC50 with HTT mRNA [1] (Homo sapiens) is 1000 to 10000 nM; with SMN2 mRNA, < 100 nM; in the test with HTT mRNA [2] (Homo sapiens, 24 h) it was 1000 to 10000 nM; in the test with Target C mRNA (Homo sapiens), > 10000 nM; with MYB mRNA (setting [4]), 100 to 1000 nM; in the test with MYB mRNA (setting [5]), < 100 nM. Also, the figures for the AC50 in the test with HTT mRNA [2] (Homo sapiens) and in the test on MYB mRNA (setting [3]) were > 10000 nM and 100 to 1000 nM, respectively.

Turning to `CCNC1CCN(c2ccc(C(=O)Nc3cc(F)c4nc(C)sc4c3)c3nn(C)cc23)CC1` [Compound 443, 4-[4-(ethylamino)piperidin-1-yl]-N-(4-fluoro-2-methyl-1,3-benzothiazol-6-yl)-2-methylindazole-7-carboxamide], the concentration for half-maximal inhibition (IC50) with HTT mRNA [1] (Homo sapiens) is 1000 to 10000 nM; in the test on SMN2 mRNA, < 100 nM; in the test on HTT mRNA [2] (Homo sapiens, 24 h), 1000 to 10000 nM; in the test on Target C mRNA (Homo sapiens), > 10000 nM; in the test on MYB mRNA (setting [4]), < 100 nM; in the test with MYB mRNA (setting [5]), 100 to 1000 nM. For the same compound, the values for the AC50 with HTT mRNA [2] (Homo sapiens) and in the test with MYB mRNA (setting [3]) were 1000 to 10000 nM and < 100 nM, respectively.

Regarding `Cc1cn2cc(NC(=O)c3ccc(N4CCNCC4)c4cn(C)nc34)c(C#N)cc2n1` [Compound 444, N-{7-cyano-2-methylimidazo[1,2-a]pyridin-6-yl}-2-methyl-4-(piperazin-1-yl) indazole-7-carboxamide], the IC50 is 1000 to 10000 nM with HTT mRNA [1]; < 100 nM with SMN2 mRNA; 1000 to 10000 nM with HTT mRNA [2]; 1000 to 10000 nM in the test on Target C mRNA; 100 to 1000 nM with MYB mRNA (A673 or K562 cells, 24 hours compound treatment, RT-qPCR, read-out: MYB CJ (IC50, decrease in canonical junction mRNA)); < 100 nM in the test with MYB mRNA (Tables 4A/4B, canonical junction qPCR panel, read-out: MYB (IC50, decrease in CJ mRNA, gene panel)). Besides, the AC50 in the test on HTT mRNA [2] (Homo sapiens) is > 10000 nM; with MYB mRNA (A673 or K562 cells, 24 hours compound treatment, RT-qPCR), 100 to 1000 nM.

`Cc1cn2cc(NC(=O)c3ccc(N4CCNC[C@@H]4C)c4cn(C)nc34)cc(F)c2n1` [Compound 446, N-{8-fluoro-2-methylimidazo[1,2-a]pyridin-6-yl}-2-methyl-4-[(2S)-2-methylpiperazin-1-yl]indazole-7-carboxamide]: the IC50 in the test on HTT mRNA [1] (Homo sapiens) is 1000 to 10000 nM; in the test on SMN2 mRNA it was < 100 nM; in the test on HTT mRNA [2] (Homo sapiens, 24 h) it was 1000 to 10000 nM; in the test on Target C mRNA (Homo sapiens), 1000 to 10000 nM; with MYB mRNA (setting [4]), 100 to 1000 nM; with MYB mRNA (setting [5]), 100 to 1000 nM. Besides, the figures for the AC50 in the test with HTT mRNA [2] (Homo sapiens) and in the test with MYB mRNA (setting [3]) were 1000 to 10000 nM and 100 to 1000 nM, respectively.

With `Cc1cn2cc(NC(=O)c3ccc(N4CCNC[C@H]4C)c4cn(C)nc34)cc(F)c2n1` [Compound 447, N-{8-fluoro-2-methylimidazo[1,2-a]pyridin-6-yl}-2-methyl-4-[(2R)-2-methylpiperazin-1-yl]indazole-7-carboxamide], the IC50 in the test with HTT mRNA [1] (Homo sapiens) is 1000 to 10000 nM; in the test on SMN2 mRNA, < 100 nM; with HTT mRNA [2] (Homo sapiens, 24 h), 100 to 1000 nM; in the test on Target C mRNA (Homo sapiens), 1000 to 10000 nM; in the test on MYB mRNA (setting [4]), < 100 nM; in the test with MYB mRNA (setting [5]), 100 to 1000 nM. In addition, the AC50 in the test on HTT mRNA [2] (Homo sapiens) was 100 to 1000 nM; in the test with MYB mRNA (setting [3]) it was < 100 nM.

Regarding `CNC1CCN(c2ccc(C(=O)Nc3cc(F)c4nc(C)cn4c3)c3nn(C)cc23)CC1` [Compound 448, N-{8-fluoro-2-methylimidazo[1,2-a]pyridin-6-yl}-2-methyl-4-[4-(methylamino)piperidin-1-yl]indazole-7-carboxamide], the IC50 was 100 to 1000 nM in the test with HTT mRNA [1] (Homo sapiens); < 100 nM in the test on SMN2 mRNA; 100 to 1000 nM in the test with HTT mRNA [2] (Homo sapiens, 24 h); 1000 to 10000 nM in the test on Target C mRNA (Homo sapiens); < 100 nM with MYB mRNA (setting [4]); < 100 nM with MYB mRNA (setting [5]). Moreover, the AC50 was 1000 to 10000 nM with HTT mRNA [2] (Homo sapiens) and < 100 nM in the test with MYB mRNA (setting [3]).

In the case of `CCn1cc2c(N3CCN(C)CC3)ccc(C(=O)Nc3cc(F)c4nc(CO)oc4c3)c2n1` [Compound 450, 2-ethyl-N-[4-fluoro-2-(hydroxymethyl)-1,3-benzoxazol-6-yl]-4-(4-methylpiperazin-1-yl) indazole-7-carboxamide], the IC50 in the test with HTT mRNA [1] (Homo sapiens) is 100 to 1000 nM; with SMN2 mRNA it was < 100 nM; with HTT mRNA [2] (Homo sapiens, 24 h), > 10000 nM; in the test on Target C mRNA (Homo sapiens), 1000 to 10000 nM; in the test on MYB mRNA (setting [4]), > 10000 nM; with MYB mRNA (setting [5]), < 100 nM. Besides, the AC50 with HTT mRNA [2] (Homo sapiens) and with MYB mRNA (setting [3]) was > 10000 nM each time.

As to `Cc1cn2cc(NC(=O)c3ccc(N4CCNCC4)c4cn(C)nc34)c(=O)n(C)c2n1` [Compound 451, N-{2,8-dimethyl-7-oxoimidazo[1,2-a]pyrimidin-6-yl}-2-methyl-4-(piperazin-1-yl) indazole-7-carboxamide], the IC50 with HTT mRNA [1] (Homo sapiens) was > 10000 nM; in the test with SMN2 mRNA it was > 10000 nM; in the test on HTT mRNA [2] (Homo sapiens, 24 h), > 10000 nM; in the test on Target C mRNA (Homo sapiens), > 10000 nM; with MYB mRNA (setting [4]), 1000 to 10000 nM; in the test with MYB mRNA (setting [5]), > 10000 nM. Further, the results for the AC50 in the test on HTT mRNA [2] (Homo sapiens) and with MYB mRNA (setting [3]) were > 10000 nM and 1000 to 10000 nM, respectively.
